Experimental data reported in patent publication US9901095B2, “Processes for the preparation of pesticidal compounds” (Dow AgroSciences LLC, priority 2013, dated 2018).

Columns and labels:
[1] = tested on: Green Peach Aphid (Myzus persicae) (MYZUPE); experiment: Bioassay on Green Peach Aphid (GPA), foliar spray on cabbage seedlings; assay type: in vivo; conditions: 200 ppm spray on cabbage seedlings; live aphids counted after three days; Abbott's correction
Procedure: Several molecules disclosed herein were tested against GPA using procedures described below.
Cabbage seedling grown in 3-in pots, with 2-3 small (3-5 cm) true leaves, were used as test substrate. The seedlings were infested with […] (wingless adult and nymph stages) one day prior to chemical application. Four pots with individual seedlings were used for each treatment. Test compounds (2 mg) were dissolved in 2 mL of acetone/methanol (1:1) solvent, forming stock solutions of 1000 ppm test compound. The stock solutions were diluted 5× with 0.025% Tween 20 in water to obtain the solution at 200 ppm test compound. A hand-held aspirator-type sprayer was used for spraying a solution to both sides of the cabbage leaves until runoff. Reference plants (solvent check) were sprayed with the diluent only containing 20% by volume acetone/methanol (1:1) solvent. Treated plants were held in a holding room for three days at approximately 25° C. and ambient relative humidity (RH) prior to grading. Evaluation was conducted by counting the number of live aphids per plant under a microscope. Percent Control was measured by using Abbott's correction formula (W. S. Abbott, “A Method of Computing the Effectiveness of an Insecticide” J. Econ. Entomol 18 (1925), pp. 265-267) as follows. Corrected % Control=100*(X−Y)/X
X=No. of live aphids on solvent check plants and
Y=No. of live aphids on treated plants
The results are indicated in the table entitled “Table 1: GPA (MYZUPE) and sweetpotato whitefly-crawler (BEMITA) Rating Table”.

[2] = tested on: Sweetpotato Whitefly Crawler (Bemisia tabaci) (BEMITA); experiment: Bioassay on Sweetpotato Whitefly Crawler, foliar spray on cotton plants; assay type: in vivo; conditions: 200 ppm spray on cotton plants; live nymphs counted after 8-9 days; Abbott's correction
Procedure: Cotton plants grown in 3-inch pots, with 1 small (3-5 cm) true leaf, were used at test substrate. The plants were placed in a room with whitely adults. Adults were allowed to deposit eggs for 2-3 days. After a 2-3 day egg-laying period, plants were taken from the adult whitefly room. Adults were blown off leaves using a hand-held Devilbliss sprayer (23 psi). Plants with egg infestation (100-300 eggs per plant) were placed in a holding room for 5-6 days at 82° F. and 50% RH for egg hatch and crawler stage to develop. Four cotton plants were used for each treatment. Compounds (2 mg) were dissolved in 1 mL of acetone solvent, forming stock solutions of 2000 ppm. The stock solutions were diluted 10× with 0.025% Tween 20 in water to obtain a test solution at 200 ppm. A hand-held Devilbliss sprayer was used for spraying a solution to both sides of cotton leaf until runoff. Reference plants (solvent check) were sprayed with the diluent only. Treated plants were held in a holding room for 8-9 days at approximately 82° F. and 50% RH prior to grading. Evaluation was conducted by counting the number of live nymphs per plant under a microscope.

Row | SMILES | MYZUPE rating (% Control of Mortality) [1] | BEMITA rating (% Control of Mortality) [2]
1 | Cl.Nc1c[nH]nc1Cl [Compound 1a, 3-Chloro-1H-pyrazol-4-amine hydrochloride] | B (More than 0-Less than 80) | B (More than 0-Less than 80)
2 | CC(=O)Nc1c[nH]nc1Cl [Compound 1b, N-(3-Chloro-1H-pyrazol-4-yl)acetamide] | B (More than 0-Less than 80) | B (More than 0-Less than 80)
3 | CC(=O)Nc1cn(-c2cccnc2)nc1Cl [Compound 1c, N-(3-Chloro-1-(pyridin-3-yl)-1H-pyrazol-4-yl)acetamide] | B (More than 0-Less than 80) | B (More than 0-Less than 80)
4 | CCNc1cn(-c2cccnc2)nc1Cl [Compound 1d, 3-Chloro-N-ethyl-1-(pyridin-3-yl)-1H-pyrazol-amine] | B (More than 0-Less than 80) | B (More than 0-Less than 80)
5 | CCN(C(=O)CCCl)c1cn(-c2cccnc2)nc1Cl [Compound 2a, 3-Chloro-N-(3-chloro-1-(pyridin-3-yl)-1H-pyrazol-4-yl)-N-ethylpropanamide] | A (80-100) | A (80-100)
6 | CCN(C(=O)CCSCCC(F)(F)F)c1cn(-c2cccnc2)nc1Cl [Compound 6.2, N-(3-Chloro-1-(pyridin-3-yl)-1H-pyrazol-4-yl)-N-ethyl-3-((3,3,3-trifluoropropyl)thio)propanamide] | A (80-100) | A (80-100)
7 | CCN(C(=O)CC[S+]([O-])CCC(F)(F)F)c1cn(-c2cccnc2)nc1Cl (centres unmarked) [Compound 7.2, N-(3-Chloro-1-(pyridin-3-yl)-1H-pyrazol-4-yl)-N-ethyl-3-((3,3,3-trifluoropropyl)sulfoxo)propanamide] | A (80-100) | A (80-100)
